The values below come from patent US12344614B2, “Benzodiazepine derivatives as GABA a GAMMA1 PAM” (Hoffmann-La Roche Inc., priority 2021, dated 2025).

The test has as its target h-GABA-A α2β2γ1 receptor (Homo sapiens (Human), UniProt P47869+Q8N1C3). Kind of test: Two-electrode voltage clamp electrophysiology in Xenopus oocytes expressing GABAA receptors. In kind it is cell-based. To be noted: for Efficacy (GABA) %: % modulation of GABA EC20 = 100*(Fold increase−1), compound at 30-fold Ki α2β2γ1; for Fold increase h-GABA-A α2β2γ1 oocyte @ 30-fold Ki: Xenopus oocytes, GABA EC20, test compound at approx. 30-fold its Ki α2β2γ1. The procedure: Xenopus laevis oocytes at maturation stages V-VI were used for the expression of cloned mRNA encoding GABAA receptor subunits. Oocytes ready for RNA micro-injection were bought from Ecocyte, Castrop-Rauxel, Germany and stored in modified Barth's medium (composition in mM: NaCl 88, KCl 1, NaHCO3 2.4, HEPES 10, MgSO4 0.82, CaNO3 0.33, CaCl2 0.33, pH=7.5) at 20° C. until the experiment.
Oocytes were plated in 96-well plates for microinjection using the Roboinject automated instrument (MultiChannelSystems, Reutlingen, Germany). Approximately 50 nL of an aqueous solution containing the RNA transcripts for the subunits of the desired GABAA receptor subtype was injected into each oocyte. […] Oocytes were kept in modified Barth's medium (composition in mM: NaCl 88, KCl 1, NaHCO3 4, HEPES 10, MgSO4 0.82, CaNO3 0.33, CaCl, 0.33, pH=7.5) at 20° C. until the experiment.
Electrophysiological experiments were performed using the Roboocyte instrument (MultiChannelSystems, Reutlingen, Germany) on days 3 to 5 after the micro-injection of mRNA. During the experiment the oocytes were constantly superfused by a solution containing (in mM) NaCl 90, KCl 1, HEPES 5, MgCl2 1, CaCl2 1 (pH 7.4). Oocytes were impaled by two glass microelectrodes (resistance: 0.5-0.8 MΩ) which were filled with a solution containing KCl 1M+K-acetate 1.5 M and voltage-clamped to −80 mV. The recordings were performed at room temperature using the Roboocyte two-electrode voltage clamp system (Multichannelsystem). After an initial equilibration period of 1.5 min GABA was added for 1.5 min at a concentration evoking approximately 20% of a maximal current response (EC2O). After another rest interval of 2.5 min GABA was again added evoking a response of similar amplitude and shape. […] Current traces were recorded at a digitization rate of 10 Hz during and shortly before and after the GABA application.
Each compound and concentration was tested on at least 3 oocytes. Different oocytes were used for different compound concentrations.
For the analysis, the digitized current traces of the first and second GABA response were superimposed and, if necessary, rescaled to equal maximal amplitudes. The ratio between the two responses during the time interval of test compound application was calculated point by point. The extremum of the resulting “ratio trace” was taken as the efficacy (“Fold increase”) of the compound expressed as “% modulation of GABA EC20” (100*(Fold increase−1)).
(Two-electrode voltage clamp holds a large cell at a set potential and records current.)

Turning to `O=c1ccn2c(n1)CN=C(c1cc(O)ccc1F)c1c-2ccc(Cl)c1Cl` [Example 6, 8,9-dichloro-7-(2-fluoro-5-hydroxy-phenyl)-5H-pyrimido[1,2-a][1,4]benzodiazepin-3-one], the “Efficacy (GABA) %” value is 92% and the “Fold increase h-GABA-A α2β2γ1 oocyte @ 30-fold Ki” value came to 1.92.
For `COC1CN(C(=O)c2nc3n(n2)-c2ccc(Cl)c(Cl)c2C(c2cc(O)ccc2F)=NC3)C1` [Example 7, [7,8-dichloro-6-(2-fluoro-5-hydroxy-phenyl)-4H-[1,2,4]triazolo[1,5-a][1,4]benzodiazepin-2-yl]-(3-methoxyazetidin-1-yl)methanone], in that order: 65% and 1.65.
The like results for `Oc1ccc(F)c(C2=NCc3nncn3-c3ccc(C(F)(F)F)c(Cl)c32)c1` [Example 10, 3-[7-chloro-8-(trifluoromethyl)-4H-[1,2,4]triazolo[4,3-a][1,4]benzodiazepin-6-yl]-4-fluoro-phenol] were, in that order, 73% and 1.73.
With `CN1C(=O)CN=C(c2c(F)ccc(O)c2F)c2c1ccc(Cl)c2Cl` [Example 12, 6,7-dichloro-5-(2,6-difluoro-3-hydroxy-phenyl)-1-methyl-3H-1,4-benzodiazepin-2-one], the “Efficacy (GABA) %” value turned out to be 99% and the “Fold increase h-GABA-A α2β2γ1 oocyte @ 30-fold Ki” value amounted to 1.99.
The like results for `Cc1nnc2n1-c1ccc(Cl)c(Cl)c1C(c1c(F)ccc(O)c1F)=NC2` [Example 13, 3-(7,8-dichloro-1-methyl-4H-[1,2,4]triazolo[4,3-a][1,4]benzodiazepin-6-yl)-2,4-difluoro-phenol] were, in that order, 72% and 1.72.
The like results for `O=c1ccn2c(n1)CN=C(c1c(F)ccc(O)c1F)c1c-2ccc(Cl)c1Cl` [Example 14, 8,9-dichloro-7-(2,6-difluoro-3-hydroxy-phenyl)-5H-pyrimido[1,2-a][1,4]benzodiazepin-3-one] were, in that order, 68% and 1.68.
On to `COC1CN(C(=O)c2ncn3c2CN=C(c2cc(O)ccc2F)c2c-3ccc(C(F)(F)F)c2Cl)C1` [Example 15, [7-chloro-6-(2-fluoro-5-hydroxy-phenyl)-8-(trifluoromethyl)-4H-imidazo[1,5-a][1,4]benzodiazepin-3-yl]-(3-methoxyazetidin-1-yl)methanone], for which the “Efficacy (GABA) %” value was determined as 80% and the “Fold increase h-GABA-A α2β2γ1 oocyte @ 30-fold Ki” value is recorded as 1.80.
In the case of `Cc1nnc2n1-c1ccc(C(F)(F)F)c(Cl)c1C(c1cc(O)ccc1F)=N[C@H]2C` [Example 17, 4-fluoro-3-[(4S)-7-chloro-1,4-dimethyl-8-(trifluoromethyl)-4H-[1,2,4]triazolo[4,3-a][1,4]benzodiazepin-6-yl]phenol], the “Efficacy (GABA) %” value is 77% and the “Fold increase h-GABA-A α2β2γ1 oocyte @ 30-fold Ki” value came out at 1.77.
The like results for `C[C@@H]1N=C(c2c(F)ccc(O)c2F)c2c(ccc(Cl)c2Cl)-n2ccc(=O)nc21` [Example 18, (5S)-8,9-dichloro-7-(2,6-difluoro-3-hydroxy-phenyl)-5-methyl-5H-pyrimido[1,2-a][1,4]benzodiazepin-3-one] were, in that order, 57% and 1.57.
The like results for `Cc1cnc2n1-c1ccc(C(F)(F)F)c(Cl)c1C(c1nc(O)ccc1F)=N[C@H]2C` [Example 23, 6-[(4S)-7-chloro-1,4-dimethyl-8-(trifluoromethyl)-4H-imidazo[1,2-a][1,4]benzodiazepin-6-yl]-5-fluoro-pyridin-2-ol] were, in that order, 68% and 1.68.
For `C[C@@H]1N=C(c2nc(O)ccc2F)c2c(ccc(C(F)(F)F)c2Cl)-n2c1nc1c2CCC1` [Example 24, 6-[(10S)-6-chloro-10-methyl-5-(trifluoromethyl)-1,9,12-triazatetracyclo[9.6.0.02,7.013,17]heptadeca-2(7),3,5,8,11,13(17)-hexaen-8-yl]-5-fluoro-pyridin-2-ol], in that order: 64% and 1.64.
